From US20160318856A1, “Substituted Urea eIF2alpha Kinase Activators” (THE BRIGHAM AND WOMEN'S HOSPITAL, INC., priority 2013, published 2016)
Like-named read-outs stand apart in the source and are kept apart here.

Assays:
[1] = system: eIF2α phosphorylation (eIF2•GTP•Met-tRNAi ternary complex; HRI activation); assay: surrogate dual luciferase eIF2α phosphorylation (ternary complex) assay; type: cell-based, human; settings: for maximal fold induction: Homo sapiens, read-out: Emax (F/R)
Source text: The dual luciferase expression vector and other plasmids used for these studies were previously described (see, for example, Ziegeler, G. et al. Journal of Biological Chemistry 2010, 285(20), 15408-19). The ternary complex assay, surrogate of eIF2α phosphorylation, has been described elsewhere (see, for example, Chen, T. et al. Nature Chemical Biology 2011, 7(9), 610-6). Briefly, the pBISA vector, which contains seven copies of the tetracycline-regulated transactivator response element (TRE), is flanked on both sides by minimal human cytomegalovirus (CMV) minimal promoters allowing bi-directional transcription and two MCSs (multiple cloning sites). Firefly and renilla luciferases were subcloned into MCS-I and MCS-II, respectively. This plasmid, designated pBISA-DL, transcribes two mRNAs that contain the 90 nucleotide plasmid derived 5′UTR (same sequence in both mRNAs), and the ORF encoding either firefly or renilla luciferase followed by a polyadenylation sequence. This plasmid was further modified by inserting the 5′UTR of ATF-4 mRNA into MCS-I in front of the firefly luciferase mRNA. Transcription from this unit generates an mRNA that contains the firefly luciferase ORF preceded by a 5′UTR composed of 90 nucleotides derived from the plasmid and 267 nucleotides derived from the 5′UTR of ATF-4 mRNA. Transcription from the other unit generates an mRNA that contains the renilla luciferase ORF proceeded only by the 90-nucleotide plasmid-derived sequence in the 5′UTR (pBISA-DL (ATF-4)) (see, for example, Chen, T. et al. Nature Chemical Biology 2011, 7(9), 610-6).
Cells expressing firefly and renilla luciferases were assayed with a dual glow luciferase assay kit, per manufacturer's instruction (Promega Inc., Madison, Wis.). The data calculations were carried out as the ratio of firefly to renilla luciferase signal.
A library of 1900 urea compounds was screened in the surrogate dual luciferase eIF2α phosphorylation (ternary complex) assay. This library was originally assembled and screened for inhibition of sEH by Hammock's group at UC-Davis (see, for example, Chen, T. et al. Nature Chem Biol 2011, 7, 610-616; Ziegeler, G et al. J Biol Chem 2010, 285, 15408-15419). We developed this assay in order to identify compounds that activate HRI, taking advantage of the fact that activated HRI phosphorylates eIF2α thereby reducing the amount of the eIF2•GTP•Met-tRNAi ternary complex that results in inhibition of translation of many mRNAs but paradoxically increases translation of some mRNAs that contain multiple upstream ORF (uORF) in their 5′ untranslated regions (UTRs). In our assay, firefly (F) luciferase mRNA is fused to 5′UTR of activating transcription factor 4 (ATF-4) mRNA that has multiple uORFs while renilla (R) luciferase mRNA is fused to a 5′UTR lacking any uORFs. Compounds that reduce the amount of the ternary complex, such as those activating HRI, would increase F luciferase expression while decreasing the R luciferase expression, resulting in an increased F/R luciferase ratio. To calculate the activity scores, the F/R ratios for every compound-treated wells were normalized to vehicle-treated (DMSO) wells that was arbitrarily set at 1 (F/R=1).

[2] = system: CRL-2813 human melanoma cancer cells; assay: cell proliferation (SRB) assay, CRL-2813; type: cell-based; settings: read-out: IC50
Procedure: Cells were seeded in 96-well plates and maintained for 5 days in the presence of 0.5 to 20 μM of individual compound, and cell proliferation was measured by the sulforhodamine B (SRB) assay as described previously (see, for example, Palakurthi, S. S. et al. Cancer Research 2000, 60(11), 2919-2925). Briefly, at the end of a 5-day treatment, cells were fixed in 10% cold trichloroacetic acid. Cell number was estimated by measuring the remaining bound dye of sulforhodamine B after washing. The percentage of growth was calculated by using the equation: 100×[(T−T0)/(C−T0)], where T and C represent the absorbance in treated and control cultures at Day 5, and T0 at time zero, respectively. If T is less than T0, cell death has occurred and can be calculated from 100×[(T−T0)/T0].

[3] = cell proliferation assay, Table 2, cell line not named
[4] = ternary complex assay, F/R normalized to vehicle (DMSO = 1)
[5] = Homo sapiens, CRL2813, 120 h, cell proliferation assay (SRB, 5 days), cell line not named in Table 1, values equal CRL-2813 values of Tables 5/8
[6] = cell proliferation assay (SRB, 5 days), cell line not named in Table 1, values equal CRL-2813 values of Tables 5/8

| Compound | Emax (F/R) ([1]; 7.5 μM compound) | Emax (F/R) ([1]; 15 μM compound) | Emax (F/R) ([1]; 30 μM compound) | IC50 [2, 3] | Emax (F/R) [1, 4] | IC50 [2, 6] | other results |
| --- | --- | --- | --- | --- | --- | --- | --- |
| O=C(Nc1ccc(Cl)cc1)N[C@H]1CC[C@H](OCc2c(F)cccc2F)CC1 [II-2p] | 0.95 F/R | 0.96 F/R | 0.74 F/R | > 20 µM | – | – | – |
| O=C(Nc1ccccc1C(=O)O)NC1CCC(Oc2ccc(F)cc2)CC1 (centres unmarked) [Compound I-12o, 2-(3-(4-(4-fluorophenoxy)cyclohexyl)ureido)benzoic acid] | – | – | – | – | – | – | maximal fold induction [1, 4]: 1.2; IC50 [2, 5]: > 20 µM |
| O=C(Nc1ccccc1I)N[C@H]1CC[C@H](OCc2c(F)cccc2F)CC1 [II-4o] | 0.81 F/R | 0.74 F/R | 0.81 F/R | > 20 µM | – | – | – |
| O=C(Nc1cccc(I)c1)N[C@H]1CC[C@H](OCc2c(F)cccc2F)CC1 [II-4m] | 0.69 F/R | 0.75 F/R | 0.72 F/R | > 20 µM | – | – | – |
| O=C(Nc1cccc(I)c1)NC1CCC(Oc2ccc(F)cc2)CC1 (centres unmarked) [Compound I-4m] | – | – | – | – | 10.32 F/R | 5.2 ± 0.2 µM | – |
| COc1ccccc1NC(=O)N[C@H]1CC[C@H](OCc2c(F)cccc2F)CC1 [II-8o] | 0.94 F/R | 0.88 F/R | 0.84 F/R | > 20 µM | – | – | – |
| O=C(Nc1ccccc1)N[C@H]1CC[C@H](OCc2c(F)cccc2F)CC1 [II-11] | 0.89 F/R | 0.88 F/R | 0.81 F/R | > 20 µM | – | – | – |
| O=C(Nc1ccccc1Cl)N[C@H]1CC[C@H](OCc2c(F)cccc2F)CC1 [II-2o] | 0.81 F/R | 0.69 F/R | 0.81 F/R | > 20 µM | – | – | – |
| O=C(Nc1ccccc1Cl)NC1CCC(Oc2ccc(F)cc2)CC1 (centres unmarked) [Compound I-2o] | – | – | – | – | 5.37 F/R | 9.1 ± 1 µM | – |
| O=C(Nc1ccccc1F)N[C@H]1CC[C@H](OCc2c(F)cccc2F)CC1 [II-1o] | 0.96 F/R | 0.98 F/R | 0.89 F/R | > 20 µM | – | – | – |
| O=C(Nc1cccc(C(=O)O)c1)NC1CCC(Oc2ccc(F)cc2)CC1 (centres unmarked) [Compound I-12m] | – | – | – | – | 0.88 F/R | > 20 µM | – |
| Cc1ccc(NC(=O)N[C@H]2CC[C@H](OCc3c(F)cccc3F)CC2)cc1 [II-7p] | 0.81 F/R | 0.81 F/R | 0.77 F/R | > 20 µM | – | – | – |
| O=C(Nc1ccc(Br)cc1)N[C@H]1CC[C@H](OCc2c(F)cccc2F)CC1 [II-3p] | 0.76 F/R | 0.85 F/R | 0.73 F/R | > 20 µM | – | – | – |
| O=C(Nc1ccc(Br)cc1)NC1CCC(Oc2ccc(F)cc2)CC1 (centres unmarked) [Compound I-3p] | – | – | – | – | 1.29 F/R | > 20 µM | – |
| O=C(Nc1cccc(F)c1)NC1CCC(Oc2ccc(F)cc2)CC1 (centres unmarked) [Compound I-1m] | – | – | – | – | 6.54 F/R | 8.3 ± 0.9 µM | – |
| CSc1ccc(NC(=O)NC2CCC(Oc3ccc(F)cc3)CC2)cc1 (centres unmarked) [Compound I-10p] | – | – | – | – | 1.07 F/R | > 20 µM | – |
| O=C(Nc1ccc(F)cc1)NC1CCC(Oc2ccc(F)cc2)CC1 (centres unmarked) [Compound I-1p] | – | – | – | – | 0.98 F/R | 20 ± 2.1 µM | – |
| O=C(Nc1ccc(C(F)(F)F)cc1)N[C@H]1CC[C@H](OCc2c(F)cccc2F)CC1 [II-5p] | 0.91 F/R | 0.79 F/R | 0.85 F/R | > 20 µM | – | – | – |
| O=C(Nc1cccc(C(F)(F)F)c1)NC1CCC(Oc2ccc(F)cc2)CC1 (centres unmarked) [Compound I-5m] | – | – | – | – | – | – | maximal fold induction [1, 4]: 11.8; IC50 [2, 5]: 2.6 ± 0.3 µM; IC50 ([2]; Homo sapiens, CRL2813, cell proliferation assay, Table 3, cell line not named, values equal CRL-2813 values of Table 8): 2.6 ± 0.6 µM |
| CSc1ccccc1NC(=O)N[C@H]1CC[C@H](OCc2c(F)cccc2F)CC1 [II-10o] | 0.82 F/R | 0.90 F/R | 0.83 F/R | > 20 µM | – | – | – |
| O=C(Nc1cccc(Br)c1)N[C@H]1CC[C@H](OCc2c(F)cccc2F)CC1 [II-3m] | 1.07 F/R | 1.04 F/R | 0.98 F/R | > 20 µM | – | – | – |
| Cc1ccc(NC(=O)NC2CCC(Oc3ccc(F)cc3)CC2)cc1 (centres unmarked) [Compound I-7p] | – | – | – | – | 1.05 F/R | > 20 µM | – |
| O=C(Nc1ccccc1C(F)(F)F)N[C@H]1CC[C@H](OCc2c(F)cccc2F)CC1 [II-5o] | 0.95 F/R | 0.80 F/R | 0.64 F/R | > 20 µM | – | – | – |
| Cc1ccccc1NC(=O)NC1CCC(Oc2ccc(F)cc2)CC1 (centres unmarked) [Compound I-7o] | – | – | – | – | 0.98 F/R | > 20 µM | – |
| O=C(Nc1cccc(C(F)(F)F)c1)NC1CCCC(Oc2ccc(C(F)(F)F)cc2)C1 (centres unmarked) [III-6, 1-(3-(4-(Trifluoromethyl)phenoxy)cyclohexyl)-3-(3-(trifluoromethyl)phenyl)urea] | – | – | – | – | – | – | maximal fold induction ([1]; surrogate eIF2α phosphorylation assay, Table 4): 4.52; IC50 ([2]; Homo sapiens, CRL2813, cell proliferation assay, Table 4, cell line not named): 3.8 ± 1.2 µM |
| O=C(Nc1ccc(I)cc1)N[C@H]1CC[C@H](OCc2c(F)cccc2F)CC1 [II-4p] | 0.76 F/R | 0.82 F/R | 0.67 F/R | > 20 µM | – | – | – |
| COC(=O)c1cccc(NC(=O)NC2CCC(Oc3ccc(F)cc3)CC2)c1 (centres unmarked) [Compound I-11m] | – | – | – | – | 6.83 F/R | 9.2 ± 0.8 µM | – |
| COC(=O)c1ccc(NC(=O)NC2CCC(Oc3ccc(F)cc3)CC2)cc1 (centres unmarked) [Compound I-11p] | – | – | – | – | 3.97 F/R | 11.6 µM | – |
| O=C(Nc1ccccc1OC(F)(F)F)N[C@H]1CC[C@H](OCc2c(F)cccc2F)CC1 [II-6o] | 0.93 F/R | 0.93 F/R | 0.76 F/R | > 20 µM | – | – | – |
